Experimental data as given in PubChem BioAssay (NCI).
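Tested at 5 concentrations; 48 h exposure; 96-well plates; endpoints linearly interpolated, else capped at highest concentration. The concentration for 50% growth inhibition is given as GI50. TGI: concentration producing complete growth inhibition.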

Assays:
Experiment in all cases: NCI-60 cell line screen, 48 h
NCI-H23 lung = tested on: NCI-H23 lung
MDA-MB-468 breast = tested on: MDA-MB-468 breast
EKVX NSCLC = tested on: EKVX NSCLC
OVCAR-5 ovarian = tested on: OVCAR-5 ovarian
A498 renal = tested on: A498 renal
DU-145 prostate = tested on: DU-145 prostate
T-47D breast = tested on: T-47D breast
SF-268 CNS = tested on: SF-268 CNS
SR leukemia = tested on: SR leukemia
A549 NSCLC = tested on: A549 NSCLC
MDA-MB-231 breast = tested on: MDA-MB-231 breast
HS 578T breast = tested on: HS 578T breast
HCT-116 colon = tested on: HCT-116 colon
UACC-62 melanoma = tested on: UACC-62 melanoma
HCC-2998 colon = tested on: HCC-2998 colon
HCT-15 colon = tested on: HCT-15 colon
SNB-75 CNS = tested on: SNB-75 CNS
PC-3 prostate = tested on: PC-3 prostate
UACC-257 melanoma = tested on: UACC-257 melanoma
786-0 renal = tested on: 786-0 renal
K-562 leukemia = tested on: K-562 leukemia
MCF7 breast = tested on: MCF7 breast
TK-10 renal = tested on: TK-10 renal
SN12C renal = tested on: SN12C renal
SK-MEL-28 melanoma = tested on: SK-MEL-28 melanoma
MALME-3M melanoma = tested on: MALME-3M melanoma
HOP-62 NSCLC = tested on: HOP-62 NSCLC
M14 melanoma = tested on: M14 melanoma
MDA-MB-435 = tested on: MDA-MB-435
CAKI-1 renal = tested on: CAKI-1 renal
COLO 205 colon = tested on: COLO 205 colon
OVCAR-4 ovarian = tested on: OVCAR-4 ovarian
LOX IMVI melanoma = tested on: LOX IMVI melanoma
IGROV1 ovarian = tested on: IGROV1 ovarian
OVCAR-8 ovarian = tested on: OVCAR-8 ovarian
RPMI-8226 leukemia = tested on: RPMI-8226 leukemia
NCI-H522 lung = tested on: NCI-H522 lung
ACHN renal = tested on: ACHN renal
HOP-92 NSCLC = tested on: HOP-92 NSCLC
UO-31 renal = tested on: UO-31 renal
NCI-H226 lung = tested on: NCI-H226 lung
KM12 colon = tested on: KM12 colon
SNB-19 CNS = tested on: SNB-19 CNS
OVCAR-3 ovarian = tested on: OVCAR-3 ovarian
HL-60(TB) leukemia = tested on: HL-60(TB) leukemia
SF-539 CNS = tested on: SF-539 CNS
SF-295 CNS = tested on: SF-295 CNS
NCI-H460 lung = tested on: NCI-H460 lung
SK-OV-3 ovarian = tested on: SK-OV-3 ovarian
SK-MEL-5 melanoma = tested on: SK-MEL-5 melanoma
U251 CNS = tested on: U251 CNS
CCRF-CEM leukemia = tested on: CCRF-CEM leukemia
MOLT-4 leukemia = tested on: MOLT-4 leukemia
HT29 colon = tested on: HT29 colon
SW-620 colon = tested on: SW-620 colon
RXF 393 renal = tested on: RXF 393 renal
BT-549 breast = tested on: BT-549 breast

Compound: Cc1ccc(C(SCCNCc2cc(N(C)C)ccn2)(c2ccccc2)c2ccccc2)cc1
- GI50 (NCI-H23 lung): 1.72 µM
- TGI (NCI-H23 lung): 3.32 µM
- GI50 (MDA-MB-468 breast): 2.35 µM
- TGI (MDA-MB-468 breast): 6.87 µM
- GI50 (EKVX NSCLC): 1.49 µM
- TGI (EKVX NSCLC): 3.9 µM
- GI50 (OVCAR-5 ovarian): 5.19 µM
- TGI (OVCAR-5 ovarian): 17.9 µM
- GI50 (A498 renal): 13.4 µM
- TGI (A498 renal): 27 µM
- GI50 (DU-145 prostate): 3.54 µM
- TGI (DU-145 prostate): 12.5 µM
- GI50 (T-47D breast): 2.81 µM
- TGI (T-47D breast): 11 µM
- GI50 (SF-268 CNS): 4.46 µM
- TGI (SF-268 CNS): 18.7 µM
- GI50 (SR leukemia): 1.34 µM
- TGI (SR leukemia): 9.42 µM
- GI50 (A549 NSCLC): 4.13 µM
- TGI (A549 NSCLC): 18 µM
- GI50 (MDA-MB-231 breast): 2.35 µM
- TGI (MDA-MB-231 breast): 6.33 µM
- GI50 (HS 578T breast): 2.58 µM
- TGI (HS 578T breast): 10.5 µM
- GI50 (HCT-116 colon): 1.23 µM
- TGI (HCT-116 colon): 5.22 µM
- GI50 (UACC-62 melanoma): 9.9 µM
- TGI (UACC-62 melanoma): 21.8 µM
- GI50 (HCC-2998 colon): 1.42 µM
- TGI (HCC-2998 colon): 2.75 µM
- GI50 (HCT-15 colon): 0.496 µM
- TGI (HCT-15 colon): 1.76 µM
- GI50 (SNB-75 CNS): 1.96 µM
- TGI (SNB-75 CNS): 12.4 µM
- GI50 (PC-3 prostate): 2.63 µM
- TGI (PC-3 prostate): 11.9 µM
- GI50 (UACC-257 melanoma): 4.27 µM
- TGI (UACC-257 melanoma): 15.4 µM
- GI50 (786-0 renal): 1.88 µM
- TGI (786-0 renal): 3.83 µM
- GI50 (K-562 leukemia): 2.22 µM
- TGI (K-562 leukemia): 7.73 µM
- GI50 (MCF7 breast): 0.373 µM
- TGI (MCF7 breast): 1.57 µM
- GI50 (TK-10 renal): 4.68 µM
- TGI (TK-10 renal): 17.3 µM
- GI50 (SN12C renal): 3.94 µM
- TGI (SN12C renal): 14.6 µM
- GI50 (SK-MEL-28 melanoma): 5.56 µM
- TGI (SK-MEL-28 melanoma): 17.8 µM
- GI50 (MALME-3M melanoma): 1.75 µM
- TGI (MALME-3M melanoma): 3.29 µM
- GI50 (HOP-62 NSCLC): 3.26 µM
- TGI (HOP-62 NSCLC): 14.3 µM
- GI50 (M14 melanoma): 1.55 µM
- TGI (M14 melanoma): 3.5 µM
- GI50 (MDA-MB-435): 1.55 µM
- TGI (MDA-MB-435): 4.67 µM
- GI50 (CAKI-1 renal): 3.28 µM
- TGI (CAKI-1 renal): 15.5 µM
- GI50 (COLO 205 colon): 1.7 µM
- TGI (COLO 205 colon): 3.17 µM
- GI50 (OVCAR-4 ovarian): 4.4 µM
- TGI (OVCAR-4 ovarian): 20.3 µM
- GI50 (LOX IMVI melanoma): 1.42 µM
- TGI (LOX IMVI melanoma): 2.77 µM
- GI50 (IGROV1 ovarian): 3.81 µM
- TGI (IGROV1 ovarian): 16.1 µM
- GI50 (OVCAR-8 ovarian): 3.3 µM
- TGI (OVCAR-8 ovarian): 20 µM
- GI50 (RPMI-8226 leukemia): 2.08 µM
- TGI (RPMI-8226 leukemia): 5.48 µM
- GI50 (NCI-H522 lung): 2.34 µM
- TGI (NCI-H522 lung): 6.63 µM
- GI50 (ACHN renal): 4.72 µM
- TGI (ACHN renal): 17.3 µM
- GI50 (HOP-92 NSCLC): 1.85 µM
- TGI (HOP-92 NSCLC): 8.82 µM
- GI50 (UO-31 renal): 2.96 µM
- TGI (UO-31 renal): 16.2 µM
- GI50 (NCI-H226 lung): 14 µM
- TGI (NCI-H226 lung): 28.1 µM
- GI50 (KM12 colon): 3.34 µM
- TGI (KM12 colon): 12 µM
- GI50 (SNB-19 CNS): 4.42 µM
- TGI (SNB-19 CNS): 16.3 µM
- GI50 (OVCAR-3 ovarian): 2.65 µM
- TGI (OVCAR-3 ovarian): 10.3 µM
- GI50 (HL-60(TB) leukemia): 1.73 µM
- TGI (HL-60(TB) leukemia): 4.19 µM
- GI50 (SF-539 CNS): 2.2 µM
- TGI (SF-539 CNS): 4.89 µM
- GI50 (SF-295 CNS): 1.46 µM
- TGI (SF-295 CNS): 2.86 µM
- GI50 (NCI-H460 lung): 3.02 µM
- TGI (NCI-H460 lung): 9.9 µM
- GI50 (SK-OV-3 ovarian): 3.84 µM
- TGI (SK-OV-3 ovarian): 14.4 µM
- GI50 (SK-MEL-5 melanoma): 3.59 µM
- TGI (SK-MEL-5 melanoma): 12.8 µM
- GI50 (U251 CNS): 2.69 µM
- TGI (U251 CNS): 10.4 µM
- GI50 (CCRF-CEM leukemia): 2.03 µM
- TGI (CCRF-CEM leukemia): 8.53 µM
- GI50 (MOLT-4 leukemia): 2.38 µM
- TGI (MOLT-4 leukemia): 6.9 µM
- GI50 (HT29 colon): 1.98 µM
- TGI (HT29 colon): 4.17 µM
- GI50 (SW-620 colon): 2.52 µM
- TGI (SW-620 colon): 11.4 µM
- GI50 (RXF 393 renal): 3.03 µM
- TGI (RXF 393 renal): 12.5 µM
- GI50 (BT-549 breast): 2.94 µM
- TGI (BT-549 breast): 7.87 µM
